Drawing on PubChem BioAssay (NCI), this text covers TGI for 8 compounds.

Molecules are shown by their SMILES.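 Cultured in 96-well plates, cells were exposed to test compound for 48 hours across five concentrations. Definition used: TGI = concentration required for complete inhibition of growth.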

Among the test systems are SNB-19 CNS; UACC-62 melanoma; M14 melanoma; MDA-N; KM12 colon; HL-60(TB) leukemia; TK-10 renal; SK-MEL-5 melanoma; HS 578T breast; UACC-257 melanoma; SF-539 CNS; MOLT-4 leukemia; MCF7 breast; SK-MEL-2 melanoma; IGROV1 ovarian; T-47D breast; HCT-15 colon.
Holding throughout (experiment): inhibition of tumour cell growth, NCI panel, 48 h

On to `CC1(C)C(C#N)=[N+]([O-])C(C)(C)N1O`, for which the TGI with SNB-19 CNS was greater than 100 µM; in the test with UACC-62 melanoma, greater than 100 µM; with M14 melanoma, greater than 100 µM; in the test on MDA-N, greater than 100 µM; in the test with KM12 colon it was greater than 100 µM; in the test on HL-60(TB) leukemia, 73.4 µM. Also, the TGI in the test with TK-10 renal, with SK-MEL-5 melanoma, in the test with HS 578T breast, with UACC-257 melanoma, with SF-539 CNS and with MOLT-4 leukemia was greater than 100 µM throughout. Also, the TGI with MCF7 breast, with SK-MEL-2 melanoma, in the test on IGROV1 ovarian, with T-47D breast and with HCT-15 colon was greater than 100 µM throughout.

For `Cc1nn2c(=O)c([N+](=O)[O-])c(/C=C/c3ccco3)nc2s1`, the TGI was greater than 100 µM in the test on SNB-19 CNS; greater than 100 µM in the test on UACC-62 melanoma; greater than 100 µM in the test with M14 melanoma; 76.5 µM with MDA-N; greater than 100 µM with KM12 colon; 96.2 µM with HL-60(TB) leukemia. The TGI with TK-10 renal is greater than 100 µM; in the test with SK-MEL-5 melanoma, 90.1 µM; in the test with HS 578T breast, 89.1 µM; in the test with UACC-257 melanoma, greater than 100 µM; with SF-539 CNS, greater than 100 µM; in the test with MOLT-4 leukemia it was greater than 100 µM. Besides, the TGI in the test with MCF7 breast, in the test on SK-MEL-2 melanoma, with IGROV1 ovarian, in the test on T-47D breast and in the test on HCT-15 colon was greater than 100 µM throughout.

`O=C(/C=C/c1ccc(O)c(O)c1)OCc1ccccc1`: the TGI was 97.6 µM with SNB-19 CNS; 53.9 µM in the test on UACC-62 melanoma; 48.2 µM in the test with M14 melanoma; greater than 100 µM in the test with MDA-N; greater than 100 µM in the test with KM12 colon; 4.66 µM in the test with HL-60(TB) leukemia. Also, the TGI was 54.3 µM in the test on TK-10 renal; 24.3 µM in the test on SK-MEL-5 melanoma; greater than 100 µM with HS 578T breast; 59.1 µM in the test on UACC-257 melanoma; 24.5 µM in the test with SF-539 CNS; 39.1 µM in the test on MOLT-4 leukemia. For the same compound, the TGI in the test on MCF7 breast is 37.9 µM; in the test with SK-MEL-2 melanoma, 82 µM; in the test on IGROV1 ovarian it was 13.5 µM; in the test with T-47D breast it was 73.8 µM; with HCT-15 colon, greater than 100 µM.

Take `O=C1OC2C(O)COC2(O)C1(O)C(C[N+](=O)[O-])c1ccc(Cl)cc1` (stereo unspecified): the TGI worked out at 28.9 µM with SNB-19 CNS; 22.8 µM with UACC-62 melanoma; 13.6 µM in the test on M14 melanoma; 6.98 µM in the test with MDA-N; 18.3 µM with KM12 colon; 10.5 µM in the test with HL-60(TB) leukemia. The TGI in the test with TK-10 renal was 25.9 µM; in the test with SK-MEL-5 melanoma, 21.6 µM; with HS 578T breast it was greater than 52.9 µM; with UACC-257 melanoma, 17.4 µM; in the test on SF-539 CNS, 14 µM; in the test with MOLT-4 leukemia, 10.9 µM. Moreover, the TGI turned out to be 5 µM in the test with MCF7 breast; 35.8 µM with SK-MEL-2 melanoma; 21.9 µM with IGROV1 ovarian; 43.2 µM in the test with T-47D breast; 16.7 µM in the test on HCT-15 colon.

With `Cc1cc(=O)oc2cc(SC(=O)N(C)C)ccc12`, the TGI in the test with SNB-19 CNS, in the test with UACC-62 melanoma, in the test with M14 melanoma, in the test with MDA-N, with KM12 colon and in the test on HL-60(TB) leukemia was greater than 100 µM throughout. Further, the TGI in the test on TK-10 renal, in the test with SK-MEL-5 melanoma, in the test on HS 578T breast, with UACC-257 melanoma, with SF-539 CNS and in the test on MOLT-4 leukemia was greater than 100 µM each time. The TGI in the test with MCF7 breast, in the test on SK-MEL-2 melanoma, in the test on IGROV1 ovarian, in the test with T-47D breast and in the test with HCT-15 colon was greater than 100 µM each time.

Turning to `CC1C(=NO)C(C)C(c2ccccc2)N(N=O)C1c1ccccc1` (stereo unspecified), the TGI with SNB-19 CNS amounted to 50.5 µM; in the test on UACC-62 melanoma, 27.2 µM; with M14 melanoma, 29.5 µM; with MDA-N it was 36.3 µM; in the test with KM12 colon it was 29.8 µM; with HL-60(TB) leukemia, 88.6 µM. Moreover, the TGI in the test on TK-10 renal is 55.7 µM; with SK-MEL-5 melanoma, 33.1 µM; in the test on HS 578T breast it was 36.7 µM; in the test on UACC-257 melanoma it was 54.8 µM; in the test with SF-539 CNS it was 26.5 µM; with MOLT-4 leukemia it was 44.6 µM. Moreover, the TGI was greater than 100 µM with MCF7 breast; 39.5 µM with SK-MEL-2 melanoma; 52.9 µM with IGROV1 ovarian; 38.9 µM with T-47D breast; 31.9 µM in the test on HCT-15 colon.

As for `CCCc1cc(=O)oc2c(C=O)c(O)cc(O)c12`, the TGI with SNB-19 CNS stood at 87.1 µM; with UACC-62 melanoma, 38.4 µM; with M14 melanoma, 52.7 µM; in the test with MDA-N, 75.6 µM; in the test on KM12 colon, 61.2 µM; with HL-60(TB) leukemia, 42.7 µM. For the same compound, the TGI was greater than 100 µM with TK-10 renal; 37.8 µM in the test with SK-MEL-5 melanoma; 61.2 µM with HS 578T breast; 65.2 µM in the test on UACC-257 melanoma; 57 µM in the test on SF-539 CNS; 56.5 µM in the test on MOLT-4 leukemia. Besides, the TGI with MCF7 breast is 80 µM; with SK-MEL-2 melanoma, 48.4 µM; in the test with IGROV1 ovarian, greater than 100 µM; in the test on T-47D breast, 74.9 µM; in the test with HCT-15 colon, 73.4 µM.

With `O=c1c(-c2c(-c3ccccc3)oc3ccc(Cl)cc3c2=O)c(-c2ccccc2)oc2ccc(Cl)cc12`, the TGI in the test with SNB-19 CNS is greater than 100 µM; in the test with UACC-62 melanoma, greater than 100 µM; in the test on M14 melanoma, greater than 100 µM; in the test on MDA-N, greater than 100 µM; in the test on KM12 colon it was greater than 100 µM; in the test with HL-60(TB) leukemia it was 0.606 µM. The TGI with TK-10 renal, in the test on SK-MEL-5 melanoma, in the test with HS 578T breast, in the test with UACC-257 melanoma, in the test with SF-539 CNS and with MOLT-4 leukemia was greater than 100 µM throughout. Besides, the TGI in the test with MCF7 breast, with SK-MEL-2 melanoma, in the test on IGROV1 ovarian, in the test with T-47D breast and in the test on HCT-15 colon was greater than 100 µM in each case.
